Results published in patent US7683069B2, “3-substituted-4-pyrimidone derivatives” (Mitsubishi Tanabe Pharma Corporation, priority 2002, dated 2010).

target: T1, bovine cerebral TPK1 (Bos taurus, UniProt A0A3Q1MT31); assay: Inhibitory activity against P-GS1 phosphorylation by bovine cerebral TPK1; type: biochemical; details: 41.7 μM [γ-32P] ATP, 25° C., 2 hours, pH 6.5
T1 construct: bovine cerebral TPK1; from tissue; host or cells: bovine brain (cerebrum)
Description: Inhibitory Activity of the Medicament of the Present Invention Against P-GS1 Phosphorylation by Bovine Cerebral TPK1
A mixture containing 100 mM MES-sodium hydroxide (pH 6.5), 1 mM magnesium acetate, 0.5 mM EGTA, 5 mM β-mercaptoethanol, 0.02% Tween 20, 10% glycerol, 12 μg/ml P-GS1, 41.7 μM [γ-^32P] ATP (68 kBq/ml), bovine cerebral TPK1 and a compound shown in Table (a final mixture contained 1.7% DMSO deriving from a solution of a test compound prepared in the presence of 10% DMSO) was used as a reaction system. The phosphorylation was started by adding ATP, and the reaction was conducted at 25° C. for 2 hours, and then stopped by adding 21% perchloric-acid on ice cooling. The reaction mixture was centrifuged at 12,000 rpm for 5 minutes and adsorbed on P81 paper (Whatmann), and then the paper was washed four times with 75 mM phosphoric acid, three times with water and once with acetone. The paper was dried, and the residual radioactivity was measured using a liquid scintillation counter.

T1 sequence (A0A3Q1MT31 1-419): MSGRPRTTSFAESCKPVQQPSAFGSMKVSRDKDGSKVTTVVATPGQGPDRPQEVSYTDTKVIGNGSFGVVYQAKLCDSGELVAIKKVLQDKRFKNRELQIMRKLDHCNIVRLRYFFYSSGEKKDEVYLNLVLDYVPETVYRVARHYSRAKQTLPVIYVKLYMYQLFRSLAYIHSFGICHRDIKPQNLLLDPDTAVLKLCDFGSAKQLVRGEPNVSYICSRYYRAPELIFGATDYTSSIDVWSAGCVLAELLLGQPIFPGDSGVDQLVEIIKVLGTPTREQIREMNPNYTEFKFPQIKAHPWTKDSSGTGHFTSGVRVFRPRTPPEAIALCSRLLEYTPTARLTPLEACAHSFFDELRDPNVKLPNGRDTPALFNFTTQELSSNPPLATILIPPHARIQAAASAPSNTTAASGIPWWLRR

SMILES | IC50
Cn1c(N2CCC=C(c3ccccc3Cl)C2)nc(-c2ccncn2)cc1=O [Compound B005, 2-[5-(2-chlorophenyl)-3,6-dihydro-2H-pyridin-1-yl]-3-methyl-6-pyrimidin-4-yl-3H-pyrimidin-4-one] | 0.38 nM
Cn1c(N2CCC=C(c3ccccc3C(F)(F)F)C2)nc(-c2ccncc2)cc1=O [Compound A027, 2-[5-(2-trifluoromethylphenyl)-3,6-dihydro-2H-pyridin-1-yl]-3-methyl-6-pyridin-4-yl-3H-pyrimidin-4-one] | 31 nM
Cn1c(N2CCC=C(c3ccc(C(=O)N4CCCC4)cc3)C2)nc(-c2ccncn2)cc1=O [Compound B057, 2-[5-(4-pyrrolidinylcarbonylphenyl)-3,6-dihydro-2H-pyridin-1-yl]-3-methyl-6-pyrimidin-4-yl-3H-pyrimidin-4-one] | 6.8 nM
Cn1c(N2CCC=C(c3ccccc3)C2)nc(-c2ccncn2)cc1=O [Compound B001, 2-(5-phenyl-3,6-dihydro-2H-pyridin-1-yl)-3-methyl-6-pyrimidin-4-yl-3H-pyrimidin-4-one] | 6.5 nM
Cn1c(N2CCC=C(c3ccc(F)cc3)C2)nc(-c2ccncc2)cc1=O [Compound A004, 2-[5-(4-fluorophenyl)-3,6-dihydro-2H-pyridin-1-yl]-3-methyl-6-pyridin-4-yl-3H-pyrimidin-4-one] | 13 nM
Cn1c(N2CCC=C(c3ccc(F)cc3F)C2)nc(-c2ccncc2)cc1=O [Compound A012, 2-[5-(2,4-difluorophenyl)-3,6-dihydro-2H-pyridin-1-yl]-3-methyl-6-pyridin-4-yl-3H-pyrimidin-4-one] | 17 nM
Cn1c(N2CCC=C(c3ccc(Cl)cc3Cl)C2)nc(-c2ccncn2)cc1=O [Compound B017, 2-[5-(2,4-dichlorophenyl)-3,6-dihydro-2H-pyridin-1-yl]-3-methyl-6-pyrimidin-4-yl-3H-pyrimidin-4-one] | 5.6 nM
Cn1c(N2CCC=C(c3ccc(C(=O)N4CCCC4)cc3)C2)nc(-c2ccncc2)cc1=O [Compound A057, 2-[5-(4-pyrrolidinylcarbonylphenyl)-3,6-dihydro-2H-pyridin-1-yl]-3-methyl-6-pyridin-4-yl-3H-pyrimidin-4-one] | 24 nM
Cn1c(N2CCC=C(c3ccsc3)C2)nc(-c2ccncn2)cc1=O [Compound B043, 2-(5-thiophen-3-yl-3,6-dihydro-2H-pyridin-1-yl)-3-methyl-6-pyrimidin-4-yl-3H-pyrimidin-4-one] | 17 nM
Cn1c(N2CCC=C(c3cccs3)C2)nc(-c2ccncn2)cc1=O [Compound B044, 2-(5-thiophen-2-yl-3,6-dihydro-2H-pyridin-1-yl)-3-methyl-6-pyrimidin-4-yl-3H-pyrimidin-4-one] | 9 nM
COc1cccc(OC)c1C1=CCCN(c2nc(-c3ccncn3)cc(=O)n2C)C1 [Compound B026, 2-[5-(2,6-dimethoxyphenyl)-3,6-dihydro-2H-pyridin-1-yl]-3-methyl-6-pyrimidin-4-yl-3H-pyrimidin-4-one] | 2.4 nM
COc1ccccc1C1=CCCN(c2nc(-c3ccncc3)cc(=O)n2C)C1 [Compound A020, 2-[5-(2-methoxyphenyl)-3,6-dihydro-2H-pyridin-1-yl]-3-methyl-6-pyridin-4-yl-3H-pyrimidin-4-one] | 5 nM
Cn1c(N2CCC=C(c3ccc(F)cc3F)C2)nc(-c2ccncn2)cc1=O [Compound B012, 2-[5-(2,4-difluorophenyl)-3,6-dihydro-2H-pyridin-1-yl]-3-methyl-6-pyrimidin-4-yl-3H-pyrimidin-4-one] | 3.9 nM
Cn1c(N2CCC=C(c3ccccc3C(F)(F)F)C2)nc(-c2ccncn2)cc1=O [Compound B027, 2-[5-(2-trifluoromethylphenyl)-3,6-dihydro-2H-pyridin-1-yl]-3-methyl-6-pyrimidin-4-yl-3H-pyrimidin-4-one] | 2.6 nM
Cn1c(N2CCC=C(COc3ccc(F)cc3)C2)nc(-c2ccncc2)cc1=O [Compound A056, 2-[5-(4-fluorophenoxymethyl)-3,6-dihydro-2H-pyridin-1-yl]-3-methyl-6-pyridin-4-yl-3H-pyrimidin-4-one] | 27 nM
Cn1c(N2CCC=C(c3ccc(F)cc3)C2)nc(-c2ccncn2)cc1=O [Compound B004, 2-[5-(4-fluorophenyl)-3,6-dihydro-2H-pyridin-1-yl]-3-methyl-6-pyrimidin-4-yl-3H-pyrimidin-4-one] | 6.3 nM
COc1ccc(C2=CCCN(c3nc(-c4ccncc4)cc(=O)n3C)C2)cc1 [Compound A022, 2-[5-(4-methoxyphenyl)-3,6-dihydro-2H-pyridin-1-yl]-3-methyl-6-pyridin-4-yl-3H-pyrimidin-4-one] | 8.7 nM
Cn1c(N2CCC=C(c3ccccc3F)C2)nc(-c2ccncn2)cc1=O [Compound B002, 2-[5-(2-fluorophenyl)-3,6-dihydro-2H-pyridin-1-yl]-3-methyl-6-pyrimidin-4-yl-3H-pyrimidin-4-one] | 1.1 nM
Cn1c(N2CCC=C(c3noc4ccccc34)C2)nc(-c2ccncn2)cc1=O [Compound B049, 2-[5-(benzisoxazole-3-yl)-3,6-dihydro-2H-pyridin-1-yl]-3-methyl-6-pyrimidin-4-yl-3H-pyrimidin-4-one] | 5.1 nM
Cn1c(N2CCC=C(c3ccccc3-c3ccccc3)C2)nc(-c2ccncn2)cc1=O [Compound B033, 2-(5-biphenyl-2-yl-3,6-dihydro-2H-pyridin-1-yl)-3-methyl-6-pyrimidin-4-yl-3H-pyrimidin-4-one] | 17 nM
COc1cccc(OC)c1C1=CCCN(c2nc(-c3ccncc3)cc(=O)n2C)C1 [Compound A026, 2-[5-(2,6-dimethoxyphenyl)-3,6-dihydro-2H-pyridin-1-yl]-3-methyl-6-pyridin-4-yl-3H-pyrimidin-4-one] | 16 nM
Cn1c(N2CCC=C(c3ccccc3)C2)nc(-c2ccncc2)cc1=O [Compound A001, 2-(5-phenyl-3,6-dihydro-2H-pyridin-1-yl)-3-methyl-6-pyridin-4-yl-3H-pyrimidin-4-one] | 7 nM
Cn1c(N2CCC=C(Cc3ccccc3)C2)nc(-c2ccncc2)cc1=O [Compound A050, 2-(5-benzyl-3,6-dihydro-2H-pyridin-1-yl)-3-methyl-6-pyridin-4-yl-3H-pyrimidin-4-one] | 8 nM
Cn1c(N2CCC=C(c3ccccc3F)C2)nc(-c2ccncc2)cc1=O [Compound A002, 2-[5-(2-fluorophenyl)-3,6-dihydro-2H-pyridin-1-yl]-3-methyl-6-pyridin-4-yl-3H-pyrimidin-4-one] | 1.2 nM
COc1ccc(C2=CCCN(c3nc(-c4ccncn4)cc(=O)n3C)C2)cc1 [Compound B022, 2-[5-(4-methoxyphenyl)-3,6-dihydro-2H-pyridin-1-yl]-3-methyl-6-pyrimidin-4-yl-3H-pyrimidin-4-one] | 7.7 nM
